Measured values reported in patent US20240293391A1, “ISOQUINOLINE AND PYRIDINE BASED CXCR4 ANTAGONISTS” (Katholieke Universiteit Leuven, priority 2021, published 2024).

Key:
CXCR4 [1] = molecular target: T1, CXCR4 (Homo sapiens, UniProt P61073); assay: CXCR4 calcium mobilization assay (CXCL12-induced, U87.CD4.CXCR4 cells, FLIPR); format: cell-based; settings: Concentration needed to inhibit CXCL12-induced calcium signaling by 50%
Method: (§1) First, the ability of the compounds to compete with fluorescently labeled CXCL12 (CXCL12^AF647) for binding at CXCR4 was determined. […] Finally, given the role of CXCR4 as a major coreceptor for HIV entry, the antiviral activity of the compounds against the X4-tropic wild type HIV-1 NL4-3 strain and the HIV-2 ROD strain was determined in MT-4 cells. In parallel, the cytotoxicity of the compounds for uninfected MT-4 cells was assessed.
The calcium mobilization assay has been described in detail previously [Claes et al. JoVE 2018, 132, 1-9]. U87.CD4.CXCR4 cells (2×10^4 cells per well in DMEM/10% FBS/0.01M HEPES) were seeded in gelatin-coated (Sigma-Aldrich; 0.1% gelatin in DPBS) black-walled 96-well plates and incubated overnight at 37° ° C. and 5% CO2. The next day, cells were loaded with the fluorescent calcium indicator Fluo-2 acetoxymethyl (AM) ester (4 μM; Abcam) and incubated at room temperature in the dark for 45 minutes. Then, cells were incubated with various concentrations of the compounds for 10 minutes prior to addition of 6.25 nM CXCL12 (in assay buffer). Fluctuations in intracellular calcium levels were measured in real time by the FLIPR Tetra® (Molecular Devices, Sunnyvale, CA, USA) in all 96 wells simultaneously. The response over baseline (after CXCL12 addition) was calculated with the ScreenWorks 4.0® software (Molecular Devices) by dividing the obtained relative light units (RLUs) through the base line measured just before CXCL12 addition. From this the IC50 value for each compound was determined taking into account the negative (i.e. untreated cells without CXCL12 stimulation) and positive (i.e. untreated cells with CXCL12 addition) control samples.

[2] = Cytotoxicity for mock-infected (uninfected) MT-4 cells; format: cell-based; settings: human, mock-infected (uninfected) MT-4 cells, Concentration required to reduce the viability of mock-infected MT4 cells by 50%
Method: (§2) First, the ability of the compounds to compete with fluorescently labeled CXCL12 (CXCL12^AF647) for binding at CXCR4 was determined. Secondly, since binding of CXCL12 to CXCR4 results into a transient increase of cytosolic calcium levels, the inhibition of this CXCL12-induced calcium mobilization by the various compounds was also investigated. […] In parallel, the cytotoxicity of the compounds for uninfected MT-4 cells was assessed. […] The anti-HIV assays in MT-4 cells been described in detail before [Hout et al. cited above; […] et al. AIDS 2004, 18, 2115-2125]. […] After five days, the cytopathic effect was checked microscopically and cell viability (i.e. viral replication) was evaluated using the MTS/PES-based CellTiter 96 Aqueous One Solution Cell Proliferation assay (Promega, Fitchburg, WI, USA). Absorbance was recorded using the VersaMax ELISATM microplate reader (Molecular Devices) and analyzed with the Softmax Pro® software (Molecular Devices).

CXCR4 [3] = molecular target: T1, CXCR4; assay: CXCR4 binding assay (competition with CXCL12^AF647 on Jurkat cells, flow cytometry); design: endogenous in cells; host or cells: Jurkat cells
Method: as §1
The CXCL12^AF647 binding assay with Jurkat cells has been described previously [Schoofs et al. JoVE 2018, 133, 1-8]. Briefly, Jurkat cells were resuspended in assay buffer [Hank's Balanced Salt Solution (HBSS, Thermo Fisher Scientific), 20 mM HEPES buffer, 0.2% bovine serum albumin (Sigma-Aldrich), pH 7.4] at 3×10^5 cells per sample and then treated with various concentrations of the compound at room temperature for 15 minutes. Afterwards, the cells were incubated with 2.9 nM CXCL12^AF647 (in assay buffer) at room temperature for 30 minutes in the dark. Cells were fixed in 1% paraformaldehyde in DPBS and specific CXCL12^AF647 binding [i.e. mean fluorescence intensity (MFI)] was quantified by flow cytometry (FACSArray™; Becton Dickinson). Data were analyzed with FlowJo® Software. The 50% inhibitory concentration (IC50) was calculated for each compound relative to the negative (i.e. autofluorescence of untreated and unlabeled cells) and positive (i.e. untreated cells exposed to CXCL12^AF647 only) control.

MT-4 cells = assay: Cytotoxicity for mock-infected (uninfected) MT-4 cells; format: cell-based
Method: as §2

HIV-1 NL4-3 = assay: Anti-HIV assay in MT-4 cells, HIV-1 NL4-3; format: cell-based; settings: Human immunodeficiency virus 1, NL43, MT4; Concentration required to achieve 50% protection of MT-4 cells against HIV-induced cytopathicity
Method: as §2

HIV-2 ROD = assay: Anti-HIV assay in MT-4 cells, HIV-2 ROD; format: cell-based; settings: Human immunodeficiency virus 2, MT4; Concentration required to achieve 50% protection of MT-4 cells against HIV-induced cytopathicity
Method: as §2

[4] = Concentration needed to inhibit CXCL12 receptor binding by 50%, Jurkat cells, mean of at least two independent experiments, read-out: CXCR4 Binding IC50

T1 sequence (P61073 whole entry): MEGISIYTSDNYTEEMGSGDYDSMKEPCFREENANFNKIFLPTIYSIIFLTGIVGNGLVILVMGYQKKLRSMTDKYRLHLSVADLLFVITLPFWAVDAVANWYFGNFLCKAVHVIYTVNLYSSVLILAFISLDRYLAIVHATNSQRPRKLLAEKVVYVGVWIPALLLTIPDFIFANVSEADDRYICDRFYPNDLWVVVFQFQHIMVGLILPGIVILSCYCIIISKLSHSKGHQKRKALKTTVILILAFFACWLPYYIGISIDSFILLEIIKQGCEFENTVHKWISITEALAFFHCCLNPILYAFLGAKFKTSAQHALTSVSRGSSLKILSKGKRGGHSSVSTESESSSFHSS

COc1cc2ccnc(CN(CCCCN)C3CCCc4cccnc43)c2cc1OC (stereo not shown) [Compound 19a, N1-((6,7-Dimethoxyisoquinolin-1-yl)methyl)-N1-(5,6,7,8-tetrahydroquinolin-8-yl) butane-1,4-diamine]
IC50 (CXCR4 [1]): 25 nM | CC50 at 5 days [2]: > 100000 nM | IC50 (CXCR4 [3]; [4]): 7.2 nM

COc1ccc2c(CN(CCCCN)C3CCCc4cccnc43)nccc2c1 (stereo not shown) [Compound 19b, N1-((6-Methoxyisoquinolin-1-yl)methyl)-N1-(5,6,7,8-tetrahydroquinolin-8-yl)butane-1,4-diamine]
IC50 (CXCR4 [1]): 28 nM | CC50 at 5 days [2]: 11100 nM | IC50 (CXCR4 [3]; [4]): 0.25 nM

NCCCCN(Cc1nccc2cc(F)ccc12)C1CCCc2cccnc21 (stereo not shown) [Compound 19c, N1-((6-Fluoroisoquinolin-1-yl)methyl)-N1-(5,6,7,8-tetrahydroquinolin-8-yl)butane-1,4-diamine]
IC50 (CXCR4 [1]): 33 nM | CC50 at 5 days [2]: 18100 nM | IC50 (CXCR4 [3]; [4]): 8.9 nM

NCCCCN(Cc1nccc2cc(Br)ccc12)C1CCCc2cccnc21 (stereo not shown) [Compound 19d, N1-((6-Bromoisoquinolin-1-yl)methyl)-N1-(5,6,7,8-tetrahydroquinolin-8-yl)butane-1,4-diamine]
IC50 (CXCR4 [1]): 440 nM | CC50 at 5 days [2]: 43600 nM | IC50 (CXCR4 [3]; [4]): 26 nM

NCCCCN(Cc1nccc2ccccc12)C1CCCc2cccnc21 (stereo not shown) [Compound 19e, N1-(Isoquinolin-1-ylmethyl)-N1-(5,6,7,8-tetrahydroquinolin-8-yl)butane-1,4-diamine]
IC50 (CXCR4 [1]): 130 nM | cytotoxicity for the MT4 cell line (MT-4 cells): lack cytotoxicity | CC50 at 5 days [2]: 26700 nM | IC50 (CXCR4 [3]; [4]): 9.2 nM

NCCCCN(Cc1ccccn1)C1CCCc2cccnc21 (stereo not shown) [Compound 20, N1-(Pyridin-2-ylmethyl)-N1-(5,6,7,8-tetrahydroquinolin-8-yl)butane-1,4-diamine]
cytotoxicity for the MT4 cell line (MT-4 cells): lack cytotoxicity | CC50 at 5 days [2]: 55400 nM

COc1cc2ccnc(CN(CCCCN)Cc3ncccc3C)c2cc1OC [Compound 24a, N1-((6,7-dimethoxyisoquinolin-1-yl)methyl)-N1-((3-methylpyridin-2-yl)methyl) butane-1,4-diamine]
IC50 (CXCR4 [1]): 13 nM | cytotoxicity for the MT4 cell line (MT-4 cells): lack cytotoxicity | CC50 at 5 days [2]: > 100000 nM | IC50 (CXCR4 [3]; [4]): 3.2 nM

COc1ccc2c(CN(CCCCN)Cc3ncccc3C)nccc2c1 [Compound 24b, N1-((6-Methoxyisoquinolin-1-yl)methyl)-N1-((3-methylpyridin-2-yl)methyl) butane-1,4-diamine]
IC50 (CXCR4 [1]): 3850 nM | CC50 at 5 days [2]: 9270 nM | IC50 (CXCR4 [3]; [4]): 890 nM

Cc1cccnc1CN(CCCCN)Cc1nccc2cc(F)ccc12 [Compound 24c, N1-((6-Fluoroisoquinolin-1-yl)methyl)-N1-((3-methylpyridin-2-yl)methyl) butane-1,4-diamine]
IC50 (CXCR4 [1]): 6.1 nM | cytotoxicity for the MT4 cell line (MT-4 cells): lack cytotoxicity | CC50 (MT-4 cells; Concentration required to reduce the viability of mock-infected MT4 cells by 50%): 30800 nM | CC50 at 5 days [2]: 31000 nM | IC50 (CXCR4 [3]; [4]): 0.64 nM | IC50 (CXCR4 [3]; span over all assays (binding, calcium, HIV-1, HIV-2), read-out: IC50 values in all assays): 0.6 to 6 nM

Cc1cccnc1CN(CCCCN)Cc1nccc2cc(Br)ccc12 [Compound 24d, N1-((6-Bromoisoquinolin-1-yl)methyl)-N1-((3-methylpyridin-2-yl)methyl) butane-1,4-diamine]
IC50 (CXCR4 [1]): 690 nM | CC50 at 5 days [2]: 29500 nM | IC50 (CXCR4 [3]; [4]): 39 nM

Cc1cccnc1CN(CCCCN)Cc1ccccn1 [Compound 25, N1-((3-Methylpyridin-2-yl)methyl)-N1-(pyridin-2-ylmethyl)butane-1,4-diamine]
IC50 (CXCR4 [1]): 180 nM | CC50 at 5 days [2]: 79800 nM

NCCCCN(Cc1ccccc1)c1cccc2cccnc12 [Compound 31a, N^1-benzyl-N^1-(quinolin-8-yl)butane-1,4-diamine]
IC50 (CXCR4 [1]): > 50000 nM | CC50 at 5 days [2]: 41600 nM | EC50 (HIV-1 NL4-3): > 41600 nM | IC50 (CXCR4 [3]; [4]): > 100000 nM | EC50 (HIV-2 ROD): > 41600 nM

NCCCCN(Cc1ccccn1)c1cccc2cccnc12 [Compound 31b, N^1-(pyridin-2-ylmethyl)-N^1-(quinolin-8-yl)butane-1,4-diamine]
IC50 (CXCR4 [1]): 5500 nM | CC50 at 5 days [2]: 9460 nM | EC50 (HIV-1 NL4-3): 380 nM | IC50 (CXCR4 [3]; [4]): 36 nM | EC50 (HIV-2 ROD): > 9460 nM

NCCCCN(Cc1nccc2ccccc12)c1cccc2cccnc12 [Compound 31c, N^1-(isoquinolin-1-ylmethyl)-N^1-(quinolin-8-yl)butane-1,4-diamine]
IC50 (CXCR4 [1]): 5 nM | CC50 at 5 days [2]: 2980 nM | EC50 (HIV-1 NL4-3): 18 nM | IC50 (CXCR4 [3]; [4]): 2.3 nM | EC50 (HIV-2 ROD): 1.3 nM

c1cc(CN2CCCNCCNCCCNCC2)ccc1CN1CCCNCCNCCCNCC1 [Plerixafor, reference compound]
CC50 at 5 days [2]: 6290 nM
